The results in this text go back to a melting point compilation (Tetko et al.; mined from patent text by program, amines drawn as free bases though some values may be those of a salt).

For orientation: melting point means the temperature, or range, at which the solid turns liquid.

Where only a bound is given, the exact number is not on record here.

Regarding `CC12CCC(=O)C([N+](=O)[O-])=C1CCC1C2CCC2(C)C(OC3CC3)CCC12` (stereo not drawn), the melting point was 133 to 134 °C.
For `CNc1scc(C)c1C(=O)c1ccccc1`, the melting point was in the range of 144 to 145 °C.
Under `CC(=O)c1cccc(Oc2cccc(-c3cccc(C(=O)NCCC#N)c3)n2)c1` stands 140 to 141 °C.
The value for `OCCCN1CCC(C(O)(c2ccc(F)cc2)c2ccc(F)cc2)CC1` was 155 to 157 °C; that for `Cc1cc(OCc2ccccc2)c(C)cc1CO` was 58 to 59 °C; that for `Cc1cc(C)c2c(c1)C=C(C(=O)O)CC2` was 194 to 195 °C.
`CC(=O)N[C@@H]1CCCC[C@H]1NS(=O)(=O)c1ccc(C)cc1` (relative stereo) returned a melting point of 174 to 176 °C.
The value for `CCOC(=O)c1[nH]c(C)c(-c2ccc(F)cc2)c1C` was 174 to 175 °C; that for `COC(=O)CCNC(=O)C(=Cc1ccccc1)CSC(C)=O` was 54 °C; that for `CCCOc1ccccc1C(=O)Nc1cc(SC)ccc1C(N)=O` was 178 to 181 °C.
The compound `CCc1nc2c(N)nc3ccc(OCc4ccccc4)cc3c2n1CCCCNS(C)(=O)=O` came in with a melting point of 186 to 191 °C.
Under `CCc1nc(C(=O)O)c(CC)c(C)c1C(c1cc(F)ccc1F)S(=O)(=O)c1ccc(F)cc1` (stereo not drawn) stands 151 to 153 °C; under `Cn1cnc(S(=O)(=O)NC(CN2CCOCC2)CN2CCOCC2)c1`, 191 to 192 °C; under `OCc1c(F)cccc1NC1CCN(Cc2ccccc2)CC1`, 167 to 170 °C.
The value for `O=C1NCCc2c(O)cccc21` was 195 to 198 °C.
Consider `Oc1cc(O)nc(C(F)(F)F)n1`, for which the melting point fell in the range of 255 to 256 °C.
Turning to `CCOC(=O)c1ccc(OCCCCCCCCCCCCCCCCCCCCOc2ccc(Cl)cc2)cc1`, the melting point was 78 to 80 °C.
For the compound `CC(C)C1(c2ccccc2)OC(C(=O)OCc2cccnc2)=CC1=O` (stereo not drawn), the melting point is 109 to 110 °C.
Under `COC(=O)c1ccc(-c2nc(-c3ccc(C(F)(F)F)cc3)no2)cc1` stands 177 to 178 °C; under `CCC1CCc2[nH]cc3c(=O)n(-c4ccc(Cl)cc4)nc-3c2C1` (stereo not drawn), 318 to 320 °C; under `NC(=O)c1cc(-c2cccc3cc(Cc4cccc(C(F)(F)F)c4)sc23)ccc1F`, 169 to 170 °C.
Compound `Cc1ccc(-c2nc(COc3cccc(OCc4cccc(C)c4C(=O)O)c3)co2)s1` showed a melting point of 129 to 130 °C.
Under `CCCCc1nc2c(n1Cc1ccc(C(=O)OC)cc1)C[C@@H](C(=O)O)N(C(=O)C(c1ccccc1)c1ccccc1)C2` stands 176 to 180 °C.
The value for `COc1ccc(C)cc1NC(=O)Nc1ccc(N2CCN(C(=O)C3CCCCC3)CC2)cc1` was 222 °C.
The value for `CCCOc1ccccc1-c1nc2sccc2c(=O)[nH]1` was 115 to 117 °C; that for `O=C(O)CN(CCN(CC(=O)O)CC(=O)O)CCN(CC(=O)O)CC(=O)NCCC(O)(P(=O)(O)O)P(=O)(O)O` was 145 °C.
Turning to `CCOC(=O)N1CCc2nc3c(O)c(Br)cc(Br)c3c(C)c2CC1`, the melting point turned out to be 179 °C.
The value for `O=S(=O)(c1ccc(Br)cc1)N1CCN(CC2CCN(c3ccncc3)CC2)CC1` was 179 to 180 °C.
The value for `CCOC(=O)C(Cl)=Cc1cc(Cl)ccc1-n1c(=O)c(Cl)c(C(F)(F)F)n(C)c1=O` was 160 to 164 °C; that for `CC(=O)OC1CSC(Oc2ccc(-c3ccncc3)cc2)C(OC(C)=O)C1OC(C)=O` (stereo not drawn) was 180 °C.
With `O=C(Nc1ccccn1)C(CC1CCCC1)c1ccc(-c2cccnc2)cc1` (stereo not drawn), the melting point lay within 139 to 140 °C.
The value for `COc1ccc2[nH]cc(CCCCN3CCN(c4ccc5oc(CO)cc5c4)CC3)c2c1` was 159 °C; that for `COc1cc(C=O)ccc1OCCCC(=O)O` was 143 to 148 °C; that for `Cc1nc2cnccc2n1-c1ccc(C=Cc2cccc(OCc3nc4cc(F)ccc4s3)c2)cc1` was 178 to 181 °C.
`CCC(C#N)c1ccc(Cl)c2nc3n(c12)CCCN3c1ccc(Cl)cc1Cl` (stereo not drawn): the melting point was 220 to 221 °C.
Under `Cc1noc(-c2nnc3c4ccccc4c(OCc4ncn(C)n4)nn23)n1` stands 283 to 285 °C.
`Nc1nnc(-c2ccc(CN3CCCCCC3)s2)o1`: the melting point was 232 to 234 °C.
Regarding `CCCCc1nn(-c2ccccc2C(F)(F)F)c(=O)n1Cc1ccc(-c2ccccc2S(=O)(=O)NC(=O)c2ccccc2)cc1`, the melting point fell in the range of 91 to 93 °C.
Under `CS(=O)(=O)NCCNCc1ccccc1` stands 71 to 73 °C; under `O=C1O[C@@H](CO)CN1c1ccc(Br)cn1`, 123 to 124 °C.
Under `O=C(Oc1ccccc1)N1CCC(S(=O)(=O)c2ccccc2)C1` (stereo not drawn) stands 84 to 85 °C.
Consider `CCOC(=O)C(Cc1ccc(-c2ccco2)cc1)NC(=O)C1(NC(=O)OC(C)(C)C)CCCC1` (stereo not drawn), for which the melting point is 107 to 112 °C.
Turning to `COCCN1CC(C(=O)O)N(S(=O)(=O)c2ccc(OC)cc2)Cc2ccccc21` (stereo not drawn), the melting point lay within 164 to 165 °C.
The value for `Cc1c[nH]c2ccc(-c3nn(C(C)c4oc5ccccc5c(=O)c4-c4cccc(F)c4)c4ncnc(N)c34)cc12` (stereo not drawn) was 171 to 173 °C; that for `CC1CN(CC(N)=O)C(=O)N1` (stereo not drawn) was 124 °C.
`CC1CC2(NC(=O)NC2=O)c2cc(F)ccc2O1` (stereo not drawn) yielded a melting point of 233 to 235 °C.
With `CCOCCN(c1cccc2cc(C(N)=S)[nH]c12)S(=O)(=O)c1cccs1`, the melting point stood at 182 °C.
Under `CCn1c2ccccc2c2cc(OC)c(C#N)cc21` stands 145 to 155 °C; under `CC(C)[C@H](NC(=O)CS)C(=O)N1CCC[C@H]1C(=O)O`, 162 to 165 °C.
Under `CCCc1c(/C=C/c2cc(OC)cc(OC)c2)nc2ccc(C(=O)O)cn2c1=O` stands 268 to 270 °C; under `Cc1nccn1C(=O)c1c(Cl)cccc1Cl`, 116 to 119 °C.
In turn, `CC[C@@H](Cc1ccc(OC)c(C(=O)NCc2ccc(Oc3ccc(F)c(F)c3)cc2)c1)C(=O)O` gave a melting point of 118 to 120 °C.
The value for `CCOc1c(C(=O)Nc2ccccc2)csc1Cl` was 69 °C.
`COc1ccnc(CSc2nc3cscc3[nH]2)c1` gave a melting point of 172 to 175 °C.
Under `CCC(C)c1nn(-c2ccc(C(F)(F)F)cn2)cc1CCCO` (stereo not drawn) stands 72 to 73 °C; under `CCOC(=O)C(C)Oc1ncn(-c2ccc(C)cc2)n1` (stereo not drawn), 69 to 71 °C.
The value for `CC(C)(C)OC(=O)c1cn(-c2ccc(Cl)cc2)c(-c2ccc(Cl)cc2Cl)n1` was 179 to 181 °C; that for `CC1CC(=O)NN=C1c1ccc(NCCN)c(N)c1` (stereo not drawn) was 176 to 177 °C.
Under `CCC(CC)c1nn(-c2ccc(Cl)cn2)cc1CCCO` stands 62 to 63 °C; under `COc1cc2c(cc1OC)CN(c1nc(N)c3cc(OC)c(OC)cc3n1)C2`, 264 to 266 °C; under `Nc1nc2ccccc2c2c1nc(CCCOc1ccccc1)n2CCCNC(=O)c1ccccc1`, 192 to 194 °C.
The compound `C#CCN(Cc1cc2c(=O)n(C)c(CN3CCN(c4ccccc4)CC3)nc2cc1Cl)c1ccc(C(=O)OC(C)(C)C)cc1` showed a melting point of more than 95 °C.
The value for `COc1ccc(Cl)cc1C1(O)C(=O)Nc2ccc(C(F)(F)F)cc21` (stereo not drawn) was 218 to 220 °C; that for `Cc1ccc(Oc2ccc(Oc3ccc(C)c(C)c3)cc2)cc1C` was 106 °C.
Under `C=C(C)n1cc(C(=O)O)c(=O)c2cc(F)c(Cl)cc21` stands 229 °C; under `CCCCOc1cc2ncnc(Nc3cccc(CC)c3)c2cc1OCCOC`, 90 to 92 °C; under `COC(=O)C(=O)C1=C(O)c2ccsc2SC1`, 53 to 56 °C.
Under `Nc1cc(Oc2ccc3c(C(=O)Nc4ccc(F)c(C5CC5)c4)cccc3c2)ncn1` stands 256 to 257 °C; under `O=c1c2ccc(Cl)cc2cc2n1CCCS2`, 109 to 110 °C; under `COc1ccc(-n2c(-c3cccnc3)nc(SC)c(C#N)c2=O)cc1`, 230 to 233 °C.
`O=CNC1Cc2ccccc2NC1=O` (stereo not drawn): the melting point lay in the range of 197 to 200 °C.
The value for `O=C(Nc1ccc(Cl)cc1)NS(=O)(=O)c1ccc2c(c1)CCO2` was 190 to 194 °C; that for `Cc1cc(NCCNc2cc(C)[nH]n2)n[nH]1` was 255 to 257 °C; that for `CCOC(=O)COc1c(C)cc(C(OC)(C(F)(F)F)C(F)(F)F)cc1C` was 97 to 98 °C.
The value for `CC(C)(C)OC(=O)NN(C[C@H](O)[C@H](Cc1ccccc1)NC(=O)OCc1ccccc1)C1CCCCC1` was 142 to 143 °C; that for `CCOC(=O)C(CCC#N)(C(=O)OCC)c1ncc([N+](=O)[O-])cc1C` was 64 to 65.5 °C.
Take `Cc1ccc(-c2ccc(O)cc2)c(-c2ccc(OCCN3CCCC3)cc2)n1`: the melting point lay in the range of 159 to 161 °C.
For `CCOC(=O)c1ccc2c(CC[N+](=O)[O-])c[nH]c2c1`, the melting point lay in the range of 124 to 127 °C.
Regarding `COc1ccc(C(=O)c2c(F)cccc2F)cc1OC`, the melting point lay within 100 to 101 °C.
Under `CC1(C)CCOc2c(C(O)C#Cc3ccc(C(=O)O)c(O)c3)cccc21` (stereo not drawn) stands 225 to 227 °C; under `CS(=O)(=O)c1ccc(-c2cnn(Cc3ccccc3)c(=S)c2-c2ccc(F)cc2)cc1`, 88 to 90 °C; under `COc1cn(Cc2cccc3ccccc23)c(=O)o1`, 80 to 82 °C.
The value for `CCCn1c(=O)c2nc(C(CC)c3ccc(OCC(=O)NCCN)cc3)[nH]c2n(CCC)c1=O` (stereo not drawn) was 139 to 140 °C; that for `C=C(C)c1cn(-c2c(Cl)cc(C(F)(F)F)cc2Cl)nc1C#N` was 63 to 64 °C.
Compound `COc1cc2nc(N3CCN(C(=O)C=Cc4ccc(OC)c(OC)c4OC)CC3)nc(N)c2cc1OC` registered a melting point of 263 to 264 °C.
For the compound `CCc1nc2c(C)cc(C)nc2n1Cc1ccc(C2(C(=O)O)Cc3ccccc3C2)s1`, the melting point lay in the range of 243 to 244 °C.
The value for `C[Si](C)(C)c1cccc(Cl)c1C(=O)NC(c1ccccc1)n1nnc2ccccc21` (stereo not drawn) was 184 to 186 °C; that for `COC(=O)CCc1ccc(N2CCN(CCCCC#N)C2=O)cc1` was 99 to 101 °C.
